Numbered stars: 1 amine (or outer) side, 2 acyl side, 3 side chain; on linkers, the order of the positions; unused ones are H or OH. Bridge positions count the residues as written; N and C are the ends. Square brackets hold non-standard residues; d marks the D form. Peptide text beside a SMILES is read from it. I, II: the chains in the order shown. Hexamethylenediamine = C(CCCN[*:2])CCN[*:1]; Dip = N[C@H](C(=O)O)C(c1ccccc1)c1ccccc1; Chg = N[C@H](C(=O)O)C1CCCCC1; NMeA = CN[C@@H](C)C(=O)O
Assays:
Peregrin (Homo sapiens) = biological target: T1, Peregrin (Homo sapiens) (UniProt P55201); conditions: Compound concentration 20.0 uM, Protein concentration 2.0 uM, Result type QC Liability
T1 sequence (whole entry): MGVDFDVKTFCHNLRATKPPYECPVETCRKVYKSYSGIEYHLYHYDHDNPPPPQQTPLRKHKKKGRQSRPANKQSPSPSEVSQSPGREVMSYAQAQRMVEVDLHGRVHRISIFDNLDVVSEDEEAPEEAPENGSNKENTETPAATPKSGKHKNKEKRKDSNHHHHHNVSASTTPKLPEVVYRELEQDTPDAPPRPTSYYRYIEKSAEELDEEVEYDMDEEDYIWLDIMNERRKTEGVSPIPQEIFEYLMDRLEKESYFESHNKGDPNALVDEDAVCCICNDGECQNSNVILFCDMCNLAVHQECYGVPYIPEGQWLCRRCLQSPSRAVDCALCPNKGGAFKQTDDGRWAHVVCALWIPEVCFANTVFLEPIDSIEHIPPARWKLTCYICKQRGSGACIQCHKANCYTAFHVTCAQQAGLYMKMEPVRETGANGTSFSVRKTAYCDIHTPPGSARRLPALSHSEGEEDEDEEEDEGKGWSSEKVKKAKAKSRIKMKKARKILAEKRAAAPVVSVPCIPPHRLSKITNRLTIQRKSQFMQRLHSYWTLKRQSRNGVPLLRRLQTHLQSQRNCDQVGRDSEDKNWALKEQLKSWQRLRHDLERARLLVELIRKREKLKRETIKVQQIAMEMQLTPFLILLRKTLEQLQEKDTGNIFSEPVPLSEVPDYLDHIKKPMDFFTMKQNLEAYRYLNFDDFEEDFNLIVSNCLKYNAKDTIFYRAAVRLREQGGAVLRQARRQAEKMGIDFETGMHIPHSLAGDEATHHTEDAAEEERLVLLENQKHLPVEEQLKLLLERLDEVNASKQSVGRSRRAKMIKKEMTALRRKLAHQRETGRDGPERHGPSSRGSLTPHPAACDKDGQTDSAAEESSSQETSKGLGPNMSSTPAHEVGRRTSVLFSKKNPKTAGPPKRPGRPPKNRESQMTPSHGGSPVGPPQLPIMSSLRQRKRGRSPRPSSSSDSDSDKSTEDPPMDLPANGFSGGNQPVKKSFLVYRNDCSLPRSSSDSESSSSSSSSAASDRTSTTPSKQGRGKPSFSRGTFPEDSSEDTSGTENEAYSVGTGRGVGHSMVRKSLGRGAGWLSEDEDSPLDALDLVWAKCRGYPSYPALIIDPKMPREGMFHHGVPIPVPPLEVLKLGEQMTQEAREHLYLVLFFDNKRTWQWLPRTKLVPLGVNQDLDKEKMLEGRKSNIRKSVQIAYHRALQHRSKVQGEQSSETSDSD

[1] = biological target: Fibroblast growth factor receptor 3 (Homo sapiens) (UniProt P22607); conditions: Compound concentration 20.0 uM, Protein concentration 2.0 uM, Result type QC Liability
Sequence of Fibroblast growth factor receptor 3 (Homo sapiens) (P22607 23-806 limits assumed): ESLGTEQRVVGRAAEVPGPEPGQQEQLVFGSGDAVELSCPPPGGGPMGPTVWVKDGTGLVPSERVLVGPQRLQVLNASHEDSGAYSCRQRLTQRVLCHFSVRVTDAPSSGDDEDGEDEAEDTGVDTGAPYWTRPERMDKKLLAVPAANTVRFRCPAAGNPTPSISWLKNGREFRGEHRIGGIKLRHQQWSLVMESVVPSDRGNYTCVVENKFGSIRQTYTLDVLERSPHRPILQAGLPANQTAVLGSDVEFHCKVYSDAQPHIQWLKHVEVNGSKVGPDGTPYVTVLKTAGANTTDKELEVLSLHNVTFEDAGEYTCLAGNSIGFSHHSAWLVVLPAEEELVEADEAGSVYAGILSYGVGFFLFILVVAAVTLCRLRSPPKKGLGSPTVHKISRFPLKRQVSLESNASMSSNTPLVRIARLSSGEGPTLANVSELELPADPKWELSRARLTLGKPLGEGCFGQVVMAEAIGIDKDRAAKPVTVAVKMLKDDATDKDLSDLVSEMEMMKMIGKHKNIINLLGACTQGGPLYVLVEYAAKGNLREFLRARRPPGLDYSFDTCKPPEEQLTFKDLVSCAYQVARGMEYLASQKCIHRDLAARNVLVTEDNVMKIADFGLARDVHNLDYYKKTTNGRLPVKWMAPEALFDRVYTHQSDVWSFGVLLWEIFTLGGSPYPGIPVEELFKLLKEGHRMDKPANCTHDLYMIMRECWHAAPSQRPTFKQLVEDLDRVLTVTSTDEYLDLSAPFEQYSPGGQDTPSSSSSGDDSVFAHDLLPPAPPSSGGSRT
Description: Thermal Shift Assay. Domain: start/stop: P449-E759

Compound	ΔTm (Peregrin (Homo sapiens)) [°C]	ΔTm [1] [°C]
C=CC(=O)Nc1ccc(C(=O)Nc2[nH]nc3c2CN(C(=O)N[C@H](CN(C)C)c2ccccc2)C3(C)C)cc1	-0.82	7.32
O=C(CCSCc1ccco1)NNC(=O)N1Cc2ccccc2Oc2ccc(Cl)cc21	-3.17	0.24
Cc1cc(OCc2nc3ccccc3s2)ccc1NC(=O)Nc1ccc(Cl)c(Cl)c1	-2.19	0.81
O=C(O)c1ccc(CN2C[C@@H]3C[C@H]2CN3Cc2ccc(Oc3ccc(-c4ncco4)cc3)cc2)cc1	-2.16	0.44
CC1CCN(C(=O)[C@H](CCn2cccc2C#N)NS(=O)(=O)c2cccc3[nH]ccc23)CC1	-2.12	0.35
CP(C)(=O)c1ccc(CNC(=O)C2CCN(S(=O)(=O)c3cc(Cl)cc(Cl)c3)CC2)cc1	-3.29	0.53
O=C(O)CCCCCC[C@@H]1C(=O)NC(=O)N1CCC(O)C1CCCCC1 (stereo partly drawn)	-2.88	0.47
O=C(Cc1ccccc1)Nc1nnc(N2CC[C@@H]3[C@H]2CN3c2cccnn2)s1	-0.69	0.51
CC[C@@H](Nc1c(C#N)c(-c2ccc(-c3cccc(C)c3F)cc2)nc2cnccc12)C(=O)O	-0.66	0
CC(C)Nc1ncnc2cc(OCc3cccc([S@@](C)(=N)=O)c3)c(Br)cc12	-2.23	1.64
CN[C@@H](C)C(=O)N[C@H](C(=O)N1CCC[C@H]1C(=O)N[C@H](C(=O)NCCCCCCNC(=O)[C@@H](NC(=O)[C@@H]1CCCN1C(=O)[C@@H](NC(=O)[C@H](C)NC)C1CCCCC1)C(c1ccccc1)c1ccccc1)C(c1ccccc1)c1ccccc1)C1CCCCC1 (I: H-[NMeA][Chg]P[Dip] / II: H-[NMeA][Chg]P[Dip]; linker I:C-II:C via Hexamethylenediamine)	-2.83	0.66
Cn1cc(NC(=O)c2ccc3nc4n(c3c2)CCCNC4=O)nc1C(=O)NC1CCCC1	-0.88	1.76
CC(C)(O)CNC(=O)N1C(=O)N(c2cccc(C(F)(F)F)c2)C2=C(C(=O)CC2)[C@@H]1c1ccc(C#N)cc1	-2.73	0.55
C[C@]12CC[C@@H]3c4ccc(O)cc4CC[C@H]3[C@@H]1C[C@H]1OC(=O)C[C@]12O	-1.41	0.36
Cc1cc(-c2cnc(N)c3c(-c4ccc5scnc5c4)csc23)n(C)n1	-1.57	0.89
COc1cc2ncnc(Nc3cccc(O)c3)c2cc1OC	-1.59	2.74
C#Cc1cnc2[nH]cc(-c3cccc4c3CCN4C(=O)[C@@H]3CCCN3C#N)c2c1	-12.9	3.57
CC(=O)c1ccc2c(c1)/C(=C(/Nc1cccc(C#N)c1)c1ccc3c(c1)OCCO3)C(=O)N2	-0.95	4
Cc1nnc2n1-c1sc3c(c1C(c1ccccc1Cl)=NC2)CC(C(=O)N1CCOCC1)C3 (stereo not drawn)	-1.83	0.52
CCn1c(CNC(=O)c2ncc(C)nc2N)[n+](CC)c2ccc(C(=O)N(C)CCN(C)C)cc21	-1.78	0.52
CSc1nc2c(c(=O)n(C)c(=O)n2C)n1C	-2.2	0.45
C[C@H]1CN(C2COC2)CCN1c1ccc(Nc2cc(-c3ccnc(N4CCn5c(cc6c5CC(C)(C)C6)C4=O)c3CO)cn(C)c2=O)nc1	-2.12	4.28
COc1cc(-c2cncc(-c3cnn(C4CCNCC4)c3)c2)cc(OC)c1OC	-0.73	0.93
CCN(CC)C/C=C/C(=O)Nc1cc2c(Nc3ccc(F)c(Cl)c3)ncnc2cc1OCC1CC1	-0.42	1.12
CCCCC(C)(O)C/C=C/[C@H]1[C@H](O)CC(=O)[C@@H]1CCCCCCC(=O)O (stereo partly drawn)	-1.2	0.43
O=C1Nc2ccc(I)cc2/C1=C/c1cc(Br)c(O)c(Br)c1	-0.58	0.51
O=C(O)c1ccnc(N2CC(O)(c3ccc(OCc4c(-c5c(Cl)cccc5Cl)noc4C4CC4)cc3Cl)C2)c1	-1.75	0.03
CN(C)c1ccc(-c2cc3ncccc3c(OCCCCO)n2)cc1	-2.48	3.37
CNc1nc(-c2cc(C(=O)N3CCN(Cc4ccc(Cl)cc4)CC3)c(Cl)cn2)cs1	-1.62	0.37

From ChEMBL document CHEMBL5308504, “Tm Shift (DSF) assay results for EUbOPEN Chemogenomics Library” (2023)
